The target in this test is T1, HCV NS3/NS4a serine protease (Hepatitis C virus genotype 1b, UniProt P26663).
T1 construct: amino terminus of the NS3 protease domain (amino acids 3-181) with a tetrapeptide linker; made in house; host or cells: E. coli
The experiment in a line: Spectrophotometric assay for HCV protease inhibitory activity (chromogenic ester substrates). It is filed as biochemical, hepatitis C virus (strain 1b). The settings on record: single chain NS4A21-32-GSGS-NS3 3-181 protease, 30° C., pH 6.5. In outline:
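Single-chain NS4A(21-32)-GSGS-NS3(3-181) protease (genotype 1b) from E. coli was used at 1.3 nM in 25 mM MOPS pH 6.5 with 300 mM NaCl, 30 °C and 4% DMSO. Chromogenic ester substrate cleavage was followed as PAP release at 370 nm over 60 min. Ki was derived from vo/vi versus [I] plots assuming competitive inhibition.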

Experimental findings from patent publication US7449447B2, “Peptidomimetic NS3-serine protease inhibitors of hepatitis C virus” (priority 2003, dated 2008) are described below.

Molecules are shown by their SMILES.

T1 sequence (P26663 1013-1207, looked up, natural form): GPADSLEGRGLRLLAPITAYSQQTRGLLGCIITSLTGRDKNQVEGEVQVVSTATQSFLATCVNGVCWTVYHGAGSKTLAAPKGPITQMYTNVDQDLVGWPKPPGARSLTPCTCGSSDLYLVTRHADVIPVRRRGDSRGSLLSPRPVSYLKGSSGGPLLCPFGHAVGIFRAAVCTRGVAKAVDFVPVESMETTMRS

`CC(C)[C@H](NC(=O)N[C@H](C(=O)N1C[C@H]2[C@@H]([C@H]1C(=O)NC(CC(F)F)C(=O)NCCc1ccccc1Cl)C2(C)C)C(C)(C)C)C(=O)OC(C)(C)C` (some centres unmarked) [Example 147]: the Ki – broadly, a dissociation constant, usually derived from enzyme kinetics or from competition with a known ligand – (Ki Rating, Table 2) is greater than 500 nM. As for `COc1cccc(CCNC(=O)[C@H](CC(F)F)NC(=O)[C@@H]2[C@@H]3[C@H](CN2C(=O)[C@@H](NC(=O)N[C@H](CN(C)S(C)(=O)=O)C(C)(C)C)C(C)(C)C)C3(C)C)c1` [Example 270], the inhibitory constant (Ki) (Ki, Table 3, rating) was less than 100 nM. Same read-out and setting: then `CN(C[C@@H](NC(=O)N[C@H](C(=O)N1C[C@H]2[C@@H]([C@H]1C(=O)N[C@@H](CC(F)F)C(=O)NCC1CCCO1)C2(C)C)C(C)(C)C)C(C)(C)C)S(C)(=O)=O` (some centres unmarked) [Example 210], with greater than 500 nM. Same read-out and setting: then `CN(C[C@@H](NC(=O)N[C@H](C(=O)N1C[C@H]2[C@@H]([C@H]1C(=O)N[C@@H](CC(F)F)C(=O)NCc1ccccn1)C2(C)C)C(C)(C)C)C(C)(C)C)S(C)(=O)=O` [Example 233], with greater than 500 nM; and `COc1cc(CCNC(=O)[C@H](CC(F)F)NC(=O)[C@@H]2[C@@H]3[C@H](CN2C(=O)[C@@H](NC(=O)N[C@H](CN(C)S(C)(=O)=O)C(C)(C)C)C(C)(C)C)C3(C)C)cc(OC)c1` [Example 278], with 100 to 500 nM. On the same count and under the same terms, then `CN(C[C@@H](NC(=O)N[C@H](C(=O)N1C[C@H]2[C@@H]([C@H]1C(=O)N[C@@H](CC(F)F)C(=O)N[C@H]1C[C@H]1c1ccccc1)C2(C)C)C(C)(C)C)C(C)(C)C)S(C)(=O)=O` [Example 307], with less than 100 nM; and `CN(C[C@@H](NC(=O)N[C@H](C(=O)N1C[C@H]2[C@@H]([C@H]1C(=O)N[C@@H](CC(F)F)C(=O)NCCOc1ccccc1)C2(C)C)C(C)(C)C)C(C)(C)C)S(C)(=O)=O` [Example 221], with greater than 500 nM.

In the case of `CC(C)[C@@H](CN(C)S(=O)(=O)c1ccccc1)NC(=O)N[C@H](C(=O)N1C[C@H]2[C@@H]([C@H]1C(=O)N[C@@H](CC(F)F)C(=O)NCCc1ccc(C(=O)O)cc1)C2(C)C)C(C)(C)C` [Example 112], the Ki (Ki, Table 1) was found to be 50 nM.
